{
  "source": "patent US20200199530A1",
  "about": "“METHODS OF DIFFERENTIATING STEM CELL-DERIVED ECTODERMAL LINEAGE PRECURSORS” (MEMORIAL SLOAN-KETTERING CANCER CENTER, priority 2017, published 2020)",
  "type_in_all_cases": "cell-based, human",
  "key": {"H9 SIX1 H2B::GFP cells": {"tested_on": "H9 SIX1 H2B::GFP cells", "assay": "LOPAC small-molecule screen for enhancers of placode fate and hit validation", "settings": "for validation of primary hits: percentage of cells expressing SIX1: CP protocol, FIG. 6C, 13A/13B, 44A/44B; for expression of SIX1 relative to control differentiations (primary screen): LOPAC library, 1 μM and 10 μM, added day 3, read day 6", "description": "(§1) H9 SIX1 H2B::GFP cells were differentiated into lens placode as described earlier and plated on 96 well plates coated with Matrigel. On day 3 (day before SIX1 H2B::GFP can be detected in individual cells) the medium was additionally supplemented with compounds from the LOPAC library. Two different concentrations (1 μM and 10 μM) per compound were used. Medium was not changed until day 6 of differentiation. On day 6 of differentiation plates were washed once with PBS and cells were fixed with 4% PFA. To increase the signal intensity over background, the cells were stained using an antibody against GFP. After labeling with an appropriate Alexa488-conjugated secondary antibody and the nuclear counterstain DAPI, cells were analyzed using the Meta Express software (Meta-morph) by calculating the percent nuclear GFP signal over DAPI positive cells."}, "[1]": {"tested_on": "hPSC differentiated towards CP (SIX1)", "assay": "Phenanthroline in CP differentiation: marker expression and SIX1 positive cells", "settings": "for SIX1 positive cells: CP protocol, FIG. 6E, Phenanthroline alone = absence of FGF2, control 18%", "description": "(§2) All differentiations starting from E8 were dissociated into single cells using EDTA and re-plated at high density in E8 with the ROCK inhibitor (Tocris). Cells were typically seeded at a density of 200,000 cells/cm^2 on Matrigel coated dishes. Switching from E8 to E6 triggered differentiations (i.e. d0). Neuroectoderm (NE) formation was generated by culturing the cells in E6 with 10 μM SB and 500 nM LDN until d12. Neural Crest (NC) was first treated with 10 μM SB, 600 nM CHIR and 1 ng/ml BMP4 from d0-d2. At d3, cells were maintained in 10 μM SB with 1.5 uM CHIR until d12. Lens placode was first treated with 10 μM SB and 5 ng/ml BMP4 from d0-d2. At d3, cells were maintained in 10 μM SB with 50 ng/ml FGF2 until d12. Trigeminal placode was first treated with 10 μM SB and 5 ng/ml BMP4 from d0-d2. At d2, 600 nm CHIR was added. At d3, cells were treated with 10 μM SB and 600 nM CHIR. From d4-d12, cells were treated with 10 μM SB. Finally, non-neural ectoderm (NNE) was treated with 10 μM SB, 10 μM SU5402 and 10 ng/ml BMP4 from d0-d1, and then treated with 10 μM SB and 5 ng/ml BMP4 from d2-d12.\nas §1"}, "hPSCs": {"tested_on": "hPSCs", "assay": "Tolerability of small molecules during E6-based differentiation", "settings": "had to be re-titrated"}, "[2]": {"tested_on": "hPSC-derived pituitary cells", "assay": "Stimulation of hormone release in vitro (ELISA)", "settings": "day 30 cells, CRF 1 μM, Somatocrinin 1 μg/ml, vs solvent control; for ACTH release: Stressin I 2 μM, Urocortin 500 nM, Ghrelin 1 μM", "description": "To stimulate hormone release in vitro, cells were differentiated in 24 well plates as described above. On day 30 of differentiation cells were washed once with PBS and 250 μl of fresh medium containing either the solvent or the stimulant were added to each well. After 12 h the supernatant was removed and centrifuged for 5 min at 2000 g to pellet debris. Supernatant was transferred into fresh reaction tubes, flash frozen and stored at −80° C. until ELISA measurements. Stimulants used were: CRF (Tocris, 1 μM), Stressin I (Tocris, 2 μM), Ghrelin (Tocris, 1 μM), Somatocrinin (Accurate Chemical, 1 μg/ml), Nafarelin (Tocris, 1 μM) and Urocortin (Tocris, 500 nM).\nHormone concentration in the supernatant of cells or in animal serum was analyzed using ELISA measurements. Hormone concentration in the cell culture supernatant was assessed using traditional single hormone ELISA Kits according to the manufactures manual. ACTH (Calbiotech, detects rat and human ACTH), hGH (R&D Systems, human specific), FSH (Calbiotech, FSH (lumELISA, human specific) and corticosterone (Abcam). Plates were read using an EnSpire Multimode plate reader (PerkinElmer). Hormone concentration in in vivo samples was analyzed using either traditional ELISA (for ACTH only, serum diluted 1:2) or species specific (human or rat) Milliplex multiplex ELISA using Luminex technology (Millipore). Magnetic bead-based sandwich immunoassay was performed according to the manufactures manual. 25 μl of undiluted serum samples in duplicate wells were analyzed by Luminex FlexMap 3D (Luminex Corp, Austin, Tex.). Cytokine concentrations were determined by Luminex Xponent 4.1 and EMD-Millipore Milliplex Analyst v5.1 using 5-p log analysis."}, "[3]": {"tested_on": "hPSC (SIX1::H2B-GFP reporter)", "assay": "Cranial placode induction in E6 media, SIX1 positive cells", "description": "as §2\nCranial Placode differentiation. Day 0 (0-24 hrs): Add E6 media containing 5 ng/ml BMP4+10 μM SB to cells.\nDay 1 (24-48 hrs): Change media with E6 media containing 5 ng/ml BMP4+10 μM SB to cells.\nDay 2 (48-72 hrs): Change media with E6 media containing 5 ng/ml BMP4+10 μM SB to cells. […]"}, "[4]": {"tested_on": "hPSC (SOX10::GFP reporter)", "assay": "Neural crest induction in E6 media, SOX10 positive cells", "description": "as §2\nNeural Crest differentiation. Day 0 (0-24 hrs): Add E6 media containing 1 ng/ml BMP4+10 μM SB+600 nM CHIR to cells.\nDay 1 (24-48 hrs): Change media with E6 media containing 1 ng/ml BMP4+10 μM SB+600 nM CHIR to cells. […]"}, "[5]": {"tested_on": "hPSCs (TFAP2A expression)", "assay": "BMP4 induction of TFAP2A and non-neural ectoderm in E6 media", "description": "as §2, with “Finally, non-neural ectoderm (NNE) was treated with 10 μM SB, 10 μM SU5402 and 10 ng/ml BMP4 from d0-d1, and then treated with 10 μM SB and 5 ng/ml BMP4 from d2-d12.” left out\nHuman embryonic (H9, H1, HUES8, HUES6 and MEL1) and induced pluripotent stem cells (BJ1, MRC5 and SeV6) were adapted in the E8 media for a minimum of 4 passages (˜2 weeks) and induced to differentiate into the four ectodermal lineages. Bulk differentiations were dissociated using Accutase for 30 min at 37° C. at day 10 of differentiation and seeded in 96 well imaging plates. Cells were fixed two days later using 4% paraformaldehyde and permeabilized using 0.5% Triton-X and maintained in 0.2% Tween all diluted with PBS. Cells were then stained using antibodies against various markers indicative of the ectodermal lineages. Plates were scanned and measurements recorded using an IN Cell Analyzer 6000 (GE) and quantified using the Columbus image analysis software (PerkinElmer). Experiments involving these cell lines were biologically replicated (n=4) and technically replicated (n=2 per biological replicate)."}, "[6]": {"settings": "three-day pulse with SB431542 in E6"}},
  "note": "Entries after “also recorded” stand apart in the source; their conditions may differ. Ends that are not written are not given here.",
  "data": [
    {"molecule": "CN1CCC(c2c[nH]c3ccc(O)cc23)CC1", "note": "[BRL-5443]", "values": [
      {"measurement": "validation of primary hits: percentage of cells expressing SIX1", "setting": "H9 SIX1 H2B::GFP cells", "result": "increased the level of SIX1 expressing CP precursor cells"},
      {"measurement": "validation of primary hits: percentage of cells expressing SIX1", "setting": "H9 SIX1 H2B::GFP cells; listed as BRL-54443", "result": "did not produce a significant difference"},
      {"measurement": "expression of SIX1 relative to control differentiations (primary screen)", "setting": "H9 SIX1 H2B::GFP cells", "result": "increased expression of SIX1 above the levels observed in control differentiations"}
    ]},
    {"molecule": "c1cnc2c(c1)ccc1cccnc12", "note": "[Phenanthroline]", "values": [
      {"measurement": "validation of primary hits: percentage of cells expressing SIX1", "setting": "H9 SIX1 H2B::GFP cells", "result": "confirmed to reliably enhance the percentage of cells expressing Six1; also recorded: confirmed to trigger a robust increase in the percentage of cells expressing SIX1; also recorded: large majority of cells"},
      {"measurement": "expression of SIX1 relative to control differentiations (primary screen)", "setting": "H9 SIX1 H2B::GFP cells", "result": "increased expression of SIX1 above the levels observed in control differentiations"},
      {"measurement": "SIX1 positive cells", "setting": "[1]", "result": 69, "unit": "%"},
      {"measurement": "fold increase of SIX1 positive cells versus control", "setting": "[1]; absence of FGF2, 69% versus 18%", "result": "~4", "unit": "fold"},
      {"measurement": "expression of other lineage markers (Sox10, T, MyoD, Sox17)", "setting": "[1]; differentiation towards CP, FIG. 6D", "result": "without inducing the expression of other lineage markers"}
    ]},
    {"molecule": "Cc1c[nH]c(/C=C2\\C(=O)Nc3ccccc32)c1CCC(=O)O", "note": "[SU5402, 2-[(1,2-Dihydro-2-oxo-3H-indol-3-ylidene)methyl]-4-methyl-1H-pyrrole-3-pr-opanoic acid]", "values": [
      {"measurement": "cell killing at the original (KSR protocol) concentration", "setting": "hPSCs", "result": "effectively killed the cells"}
    ]},
    {"molecule": "CRF: stimulant of hormone release (Tocris, 1 μM) (SEEPPISLDLTFHLLREVLEMARAEQLAQQAHSNRKLMEII; ends and bridges not checked; UniProt P06850 154-194, looked up)", "values": [
      {"measurement": "ACTH release", "setting": "[2]", "result": "induced release of ACTH; also recorded: specifically induced"},
      {"measurement": "GH release", "setting": "[2]", "result": "not"}
    ]},
    {"molecule": "FGF2: activator of FGF signaling", "values": [
      {"measurement": "SIX1 positive cells after addition of FGF agonist", "setting": "[3]; E6 with SB431542 and BMP pulse, FIG. 2G/38B", "result": "~50", "unit": "%"},
      {"measurement": "SIX1 positive cells", "setting": "[1]", "result": 34, "unit": "%"}
    ]},
    {"molecule": "Ghrelin: stimulant used (Tocris, 1 μM) (GSSFLSPEHQRVQQRKESKKPPAKLQPR; ends and bridges not checked; UniProt Q9UBU3 24-51, looked up)", "values": [
      {"measurement": "ACTH release", "setting": "[2]", "result": "did not trigger ACTH release and not"}
    ]},
    {"molecule": "Somatocrinin: stimulant of hormone release (Accurate Chemical, 1 μg/ml) (YADAIFTNSYRKVLGQLSARKLLQDIMSRQQGESNQERGARARL; ends and bridges not checked; UniProt P01286 32-75, looked up)", "values": [
      {"measurement": "ACTH release", "setting": "[2]", "result": "not"},
      {"measurement": "ACTH release", "setting": "[2]; listed as somatocrinin", "result": "did not trigger ACTH release"},
      {"measurement": "GH release", "setting": "[2]", "result": "induced"},
      {"measurement": "GH release", "setting": "[2]; listed as somatocrinin", "result": "triggered robust increase in GH release"}
    ]},
    {"molecule": "Urocortin: stimulant of hormone release (Tocris, 500 nM) (DNPSLSIDLTFHLLRTLLELARTQSQRERAEQNRIIFDSV; ends and bridges not checked; UniProt P55089 83-122, looked up)", "values": [
      {"measurement": "ACTH release", "setting": "[2]", "result": "specifically induced"},
      {"measurement": "ACTH release", "setting": "[2]; listed as urocortin", "result": "induced release of ACTH"}
    ]},
    {"molecule": "BMP4: activator of BMP signaling (protein, UniProt P12644 293-408, looked up) Bone morphogenetic protein 4: SPKHHSQRARKKNKNCRRHSLYVDFSDVGWNDWIVAPPGYQAFYCHGDCPFPLADHLNSTNHAIVQTLVNSVNSSIPKACCVPTELSAISMLYLDEYDKVVLKNYQEMVVEGCGCR", "values": [
      {"measurement": "SOX10 positive NC population", "setting": "[4]; short pulse 1 ng/ml in combination with WNT activation", "result": "nearly homogenous SOX10 positive NC population; also recorded: nearly homogeneous SOX10+ NC population"},
      {"measurement": "BMP4 concentration giving strong NC induction (dose-response studies)", "setting": "[4]; [6]", "result": "around 1 ng/ml"},
      {"measurement": "BMP4 concentration optimal for CP induction (dose-response studies)", "setting": "[3]; [6]", "result": "around 5 ng/ml"},
      {"measurement": "NNE marker phenotype at high BMP4 concentration", "setting": "[5]; 20 ng/ml", "result": "cells become TFAP2A+ and lack expression of SOX10 and SIX1; also recorded: derivation of TFAP2A+, PAX6−, SIX1−, and SOX10− NNE is achieved"},
      {"measurement": "percentages of TFAP2A+ cells", "setting": "[5]; with addition of BMP4, range across ESC/iPSC lines, 0%-5% without BMP4", "result": "56%-95%"},
      {"measurement": "TFAP2A expression", "setting": "[5]; within 3 days of treatment, dose-dependent", "result": "rapidly upregulated"}
    ]}
  ]
}
